Where a SMILES comes first, the peptide text is derived from it. [ ]: non-standard residue; d: D form.
What was measured:
[1] = test system: SH-SY5Y cells; test: Toxicity of peptides on differentiated SH-SY5Y cells (MTT test); format: cell-based, human; details: 24 h; for toxicity for living cells: up to 20 μM, mean of three independent assays
Experimental: Figure 2 Analysis of the effects of Aβ1-6WT(D), Aβ1-6A2V(D) and Aβ1-6A2VTAT(D) on neurotoxicity in cell models. SH-SY5Y cells were differentiated with 10 μM retinoic acid. […] Comparison of cell viability was performed by Student t-test.
Toxicity studies with Aβ1-6WT(D), Aβ1-6A2V(D) or Aβ1-6A2VTAT(D) and the short peptides’ ability to inhibit the toxicity induced by Aβ1-42WT in SH-SY5Y cell cultures were analyzed following previously described protocols. Each experiment was performed in triplicate; the data provided were obtained as the mean of three independent assays.

[2] = biological target: T1, Aβ1-42WT (Homo sapiens, UniProt P05067); test: Atomic force microscopy of Aβ1-42WT oligomerization; format: biochemical; details: Aβ1-42WT alone, 100 μM, phosphate buffer 50 mM pH 7.4, 4 °C, 24 h, AFM
T1 construct: Aβ1-42WT oligomers were formed following incubation of Aβ1-42WT at a final concentration of 100 μM; made in house; host or cells: chemical synthesis (solid-phase Fmoc), no expression host
T1 sequence (P05067 672-713 limits assumed): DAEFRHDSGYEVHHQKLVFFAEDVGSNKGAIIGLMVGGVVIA
Experimental: In polarized-light and EM studies, both peptides were used at 0.125 mM, molar ratio = 1:1 or 1:4 respectively, with 20 days incubation. […] E,F: Representative Tapping mode of AFM images as determined by amplitude error data of Aβ1-42WT oligomers. Aβ1-42WT peptide 100 μM in phosphate buffer 50 mM, pH 7.4 was incubated at 4 °C for 24 h alone (E) (Z range: -10/ + 10 mV) or in presence of Aβ1-6A2VTAT(D) (F) (Z range: -10/ + 25 mV). The molar ratio of Aβ1-42WT to Aβ1-6A2VTAT(D) was 1:4. Scale bar: 1 μm, inset: 200 nm. (G,H): height plot profiles obtained along different lines traced on the topographic AFM images.
Aβ1-42WT oligomers were formed following incubation of Aβ1-42WT at a final concentration of 100 μM in phosphate buffer 50 mM, pH 7.4 at 4 °C for 24 h, alone or in presence of Aβ1-6A2VTAT(D), at 1:4 molar ratio. Sample solutions were diluted to a final concentration of 10 μM of Aβ1-42WT with phosphate buffer and 50 μl of each solution was immediately added onto freshly cleaved mica at room temperature for 2 minutes. Samples were washed and dried under gentle nitrogen flow. AFM analyses were carried out on a Multimode AFM with a Nanoscope V system (Veeco/Digital Instruments). AFM images were analysed using the Scanning Probe Image Processor data analysis package. All the topographic patterns and SPIP characterization were verified via additional measurements on a minimum of five different, well separated areas.

[3] = test system: amyloid plaques; test: Binding of biotinylated peptides to amyloid in CRND8 mouse brain sections; details: for staining of amyloid plaques in transgenic mouse brain: CRND8 transgenic brain sections, avidin-biotin complex / DAB
Experimental: It was tested on brain sections of transgenic and control mice of CRND8 strain[44]. To unequivocally identify the fragment(s) of the peptide responsible for binding to plaques we used three separate segments: Biot-Aβ1-6WT(D), Biot-Aβ1-6A2V(D) and Biot-TAT(D). Seven-micrometre thick brain sections fixed in Carnoy and embedded in paraffin were used for staining.

[4] = Crossing of blood brain barrier and cell membranes (data not shown); details: peptide alone
[5] = test system: APP; details: enhanced β-secretase cleavage of APP, increased C99; cited from earlier work
Source text: This is consistent with our findings, indicating a shift in APP processing towards the amyloidogenic processing i ...

Molecule: C[C@@H](NC(=O)[C@H](N)CC(=O)O)C(=O)N[C@H](CCC(=O)O)C(=O)N[C@H](Cc1ccccc1)C(=O)N[C@H](CCCNC(=N)N)C(=O)N[C@H](Cc1c[nH]cn1)C(=O)O [Aβ1-6WT(D)] (H-[dD][dA][dE][dF][dR][dH]-OH)
- toxicity for living cells [1]: neither is toxic for living cells even at high concentrations

Molecule: H-Asp-ALA/VAL-Glu-Phe-Arg-His-Asp-Ser-Gly-Tyr-Glu-Val-His-His-Gln-Lys-Val-Phe-Phe-Ala-Glu-Asp-Val-Gly-Ala-Ile-Ile-Gly-Leu-Met-Val-Gly-Gly-Val-Val—OH [Aβ1-42WT, synthetic wild-type full-length Amyloid-β 1-42, reference compound]
- diameter of small oligomers (~70%) [2]: 6-20 nm
- reduction of cell viability [1]: 35%

Molecule: H-Asp-ALA/VAL-Glu-Phe-Arg-His-Gly-Gly-Gly-Gly-Gly-Arg-Lys-Lys-Arg-Arg-Gln-Arg-Arg-Arg [Biot-Aβ1-6WTTAT(D), Aβ1-6WTTAT(D) containing a biotinylated residue at the C-terminus]
- staining of amyloid plaques in transgenic mouse brain [3]: able to bind and therefore stain the plaques
- staining in brain slices of non-transgenic control mice ([3]; control animals devoid of amyloid plaques, data not shown): unable to produce any staining

Molecule: CC(C)[C@@H](NC(=O)[C@H](N)CC(=O)O)C(=O)N[C@H](CCC(=O)O)C(=O)N[C@H](Cc1ccccc1)C(=O)N[C@H](CCCNC(=N)N)C(=O)N[C@H](Cc1c[nH]cn1)C(=O)O [Aβ1-6A2V(D)] (H-[dD][dV][dE][dF][dR][dH]-OH)
- crossing of blood brain barrier and cell membranes [4]: does not efficiently cross either the blood brain barrier (BBB) or cell membranes
- toxicity for living cells [1]: neither is toxic for living cells even at high concentrations

Molecule: H-Asp-ALA/VAL-Glu-Phe-Arg-His-OH [Biot-Aβ1-6A2V(D), Aβ1-6A2V(D) containing a biotinylated residue at the C-terminus]
- staining of amyloid plaques in transgenic mouse brain [3]: no immunostaining of amyloid was detected

Molecule: Gly-Arg-Lys-Lys-Arg-Arg-Gln-Arg-Arg-Arg [Biot-TAT(D), biotinylated form of TAT(D), reference compound]
- staining of amyloid plaques in transgenic mouse brain [3]: strongly stained amyloid deposits

B1: TAT: HIV-1 Tat of the cited studies (protein, UniProt P04608 1-86, looked up)
Protein Tat: MEPVDPRLEPWKHPGSQPKTACTNCYCKKCCFHCQVCFITKALGISYGRKKRRQRRRAHQNSQTHQASLSKQPTSQPRGDPTGPKE
- fold higher levels of Aβ42 [5]: 5.5 fold
